Measurements: ChEMBL document CHEMBL3885881, “DrugMatrix”

Species: Rattus norvegicus
Test: DrugMatrix - Regimen: Daily Repeat
Assay type: toxicity, organism-based, Sprague-Dawley
Parameters: regimen Daily Repeat, gender Male, age 6-8 weeks
Conditions: in vivo, po, route oral GAVAGE, vehicle .5 % CMC; for BASOPHIL / EOSINOPHIL / ERYTHROCYTE COUNT / HEMATOCRIT / HEMOGLOBIN / LEUKOCYTE COUNT / LYMPHOCYTE / MEAN CORPUSCULAR HEMOGLOBIN / MEAN CORPUSCULAR HEMOGLOBIN CONCENTRATION / MEAN CORPUSCULAR VOLUME / MONOCYTE / NEUTROPHIL / PLATELET COUNT: tissue Blood; for ALANINE AMINOTRANSFERASE / ALBUMIN / ALKALINE PHOSPHATASE / ASPARTATE AMINOTRANSFERASE / BLOOD UREA NITROGEN / CHLORIDE / CHOLESTEROL / CREATINE PHOSPHOKINASE / CREATININE / GLUCOSE / PHOSPHORUS / POTASSIUM / SODIUM / TOTAL BILIRUBIN / TOTAL PROTEIN: tissue Plasma
[1] = 0 mg/kg, 72 h, dose level Control, time 3 day
[2] = 0 mg/kg, 120 h, dose level Control, time 5 day
[3] = 21 mg/kg, 72 h, dose level Low, time 3 day
[4] = 21 mg/kg, 120 h, dose level Low, time 5 day

Cc1onc(-c2ccccc2)c1-c1ccc(S(N)(=O)=O)cc1 [VALDECOXIB]
BASOPHIL [1]: 0.68%
EOSINOPHIL [1]: 0.46%
ERYTHROCYTE COUNT [1]: 7.15 x10E6/uL
HEMATOCRIT [1]: 45.44%
HEMOGLOBIN [1]: 14.1 G/DL
LEUKOCYTE COUNT [1]: 9.78 x10E3/uL
LYMPHOCYTE [1]: 84.44%
MEAN CORPUSCULAR HEMOGLOBIN [1]: 19.72 pg
MEAN CORPUSCULAR HEMOGLOBIN CONCENTRATION [1]: 31 G/DL
MEAN CORPUSCULAR VOLUME [1]: 63.66 fL
MONOCYTE [1]: 2.14%
NEUTROPHIL [1]: 11.16%
PLATELET COUNT [1]: 1378.2 x10E3/uL
ALANINE AMINOTRANSFERASE [1]: 42.33 u/L
ALBUMIN [1]: 3.8 G/DL
ALKALINE PHOSPHATASE [1]: 388.17 u/L
ASPARTATE AMINOTRANSFERASE [1]: 68 u/L
BLOOD UREA NITROGEN [1]: 16.17 mg/dL
CHLORIDE [1]: 96.67 MEQ/L
CHOLESTEROL [1]: 71 mg/dL
CREATINE PHOSPHOKINASE [1]: 156.17 u/L
CREATININE [1]: 0.57 mg/dL
GLUCOSE [1]: 193.67 mg/dL
PHOSPHORUS [1]: 11.43 mg/dL
POTASSIUM [1]: 7 MEQ/L
SODIUM [1]: 140.33 MEQ/L
TOTAL BILIRUBIN [1]: 0.48 mg/dL
TOTAL PROTEIN [1]: 6.8 G/DL
BASOPHIL [2]: 1.47%
EOSINOPHIL [2]: 1%
ERYTHROCYTE COUNT [2]: 7.12 x10E6/uL
HEMATOCRIT [2]: 45.47%
HEMOGLOBIN [2]: 14.1 G/DL
LEUKOCYTE COUNT [2]: 11.38 x10E3/uL
LYMPHOCYTE [2]: 82.57%
MEAN CORPUSCULAR HEMOGLOBIN [2]: 19.82 pg
MEAN CORPUSCULAR HEMOGLOBIN CONCENTRATION [2]: 31.02 G/DL
MEAN CORPUSCULAR VOLUME [2]: 63.88 fL
MONOCYTE [2]: 2.2%
NEUTROPHIL [2]: 11.97%
PLATELET COUNT [2]: 1267 x10E3/uL
ALANINE AMINOTRANSFERASE [2]: 38 u/L
ALBUMIN [2]: 3.72 G/DL
ALKALINE PHOSPHATASE [2]: 391 u/L
ASPARTATE AMINOTRANSFERASE [2]: 65.83 u/L
BLOOD UREA NITROGEN [2]: 14.17 mg/dL
CHLORIDE [2]: 107.67 MEQ/L
CHOLESTEROL [2]: 61 mg/dL
CREATINE PHOSPHOKINASE [2]: 148.33 u/L
CREATININE [2]: 0.57 mg/dL
GLUCOSE [2]: 177.17 mg/dL
PHOSPHORUS [2]: 12.07 mg/dL
POTASSIUM [2]: 7.2 MEQ/L
SODIUM [2]: 151.5 MEQ/L
TOTAL BILIRUBIN [2]: 0.58 mg/dL
TOTAL PROTEIN [2]: 6.72 G/DL
BASOPHIL [3]: 0.53%
EOSINOPHIL [3]: 0.4%
ERYTHROCYTE COUNT [3]: 6.91 x10E6/uL
HEMATOCRIT [3]: 43%
HEMOGLOBIN [3]: 13.7 G/DL
LEUKOCYTE COUNT [3]: 11.32 x10E3/uL
LYMPHOCYTE [3]: 84.1%
MEAN CORPUSCULAR HEMOGLOBIN [3]: 19.8 pg
MEAN CORPUSCULAR HEMOGLOBIN CONCENTRATION [3]: 31.87 G/DL
MEAN CORPUSCULAR VOLUME [3]: 62.2 fL
MONOCYTE [3]: 2.17%
NEUTROPHIL [3]: 11.67%
PLATELET COUNT [3]: 1322.33 x10E3/uL
ALANINE AMINOTRANSFERASE [3]: 35 u/L
ALBUMIN [3]: 3.63 G/DL
ALKALINE PHOSPHATASE [3]: 309 u/L
ASPARTATE AMINOTRANSFERASE [3]: 58.33 u/L
BLOOD UREA NITROGEN [3]: 13 mg/dL
CHLORIDE [3]: 95.33 MEQ/L
CHOLESTEROL [3]: 78.33 mg/dL
CREATINE PHOSPHOKINASE [3]: 150 u/L
CREATININE [3]: 0.47 mg/dL
GLUCOSE [3]: 190 mg/dL
PHOSPHORUS [3]: 11.8 mg/dL
POTASSIUM [3]: 6.2 MEQ/L
SODIUM [3]: 139 MEQ/L
TOTAL BILIRUBIN [3]: 0.2 mg/dL
TOTAL PROTEIN [3]: 6.43 G/DL
BASOPHIL [4]: 1.7%
EOSINOPHIL [4]: 5.9%
ERYTHROCYTE COUNT [4]: 7.33 x10E6/uL
HEMATOCRIT [4]: 45.75%
HEMOGLOBIN [4]: 14.55 G/DL
LEUKOCYTE COUNT [4]: 9.46 x10E3/uL
LYMPHOCYTE [4]: 42.8%
MEAN CORPUSCULAR HEMOGLOBIN [4]: 19.85 pg
MEAN CORPUSCULAR HEMOGLOBIN CONCENTRATION [4]: 31.85 G/DL
MEAN CORPUSCULAR VOLUME [4]: 62.35 fL
MONOCYTE [4]: 1.7%
NEUTROPHIL [4]: 47.25%
PLATELET COUNT [4]: 1408 x10E3/uL
ALANINE AMINOTRANSFERASE [4]: 30.33 u/L
ALBUMIN [4]: 3.67 G/DL
ALKALINE PHOSPHATASE [4]: 296.33 u/L
ASPARTATE AMINOTRANSFERASE [4]: 52.67 u/L
BLOOD UREA NITROGEN [4]: 12.67 mg/dL
CHLORIDE [4]: 104 MEQ/L
CHOLESTEROL [4]: 61 mg/dL
CREATINE PHOSPHOKINASE [4]: 128.67 u/L
CREATININE [4]: 0.43 mg/dL
GLUCOSE [4]: 196 mg/dL
PHOSPHORUS [4]: 12.73 mg/dL
POTASSIUM [4]: 7.17 MEQ/L
SODIUM [4]: 149.67 MEQ/L
TOTAL BILIRUBIN [4]: 0.43 mg/dL
TOTAL PROTEIN [4]: 6.7 G/DL
